For the molecule `O=C(O)C#Cc1c(Cl)cc(Cl)cc1Cl`, the melting point is 170 to 175 °C.

Molecule `CC(=O)Oc1cccc(C(=O)c2ccccc2)c1OC(C)=O` yielded a melting point of 81 to 83 °C.

Molecule `CCCCCc1ccc(S(=O)(=O)n2c(CCC(=O)O)cc3cc(Cl)ccc32)cc1` registered a melting point of 131 to 134 °C.

Consider `CCOC(=O)c1ccc(N(N)C(=O)OC(C)(C)C)cc1`, for which the melting point stood at 74 °C.

With `O=c1ccoc2c3c(ccc12)OCC(CO)O3` (centres undefined), the melting point came out at 125 °C.

`COC(=O)C(c1ccccc1)C1CCN(c2ccc([N+](=O)[O-])cc2)CC1` (centres undefined) gave a melting point of 124 °C.

For `COc1ccc2c(c1)c(CCC(=O)O)cn2S(=O)(=O)c1ccc(C)cc1`, the melting point is 172 to 174 °C.

Regarding `CCCc1nc(Cl)c(-c2ccc(C)cc2)c(Cl)n1`, the melting point lay in the range of 91 to 93 °C.

Consider `CC(C)Oc1c(C(=O)Nc2nnn[nH]2)sc2c1CS(=O)CC2` (centres undefined), for which the melting point fell in the range of 225 to 226 °C.

Take `Cc1c(O)ccc(S)c1C`: the melting point was in the range of 98 to 99 °C.

The molecule `N#Cc1cnc2sc(Br)cc2c1Cl` displayed a melting point of 158 to 166 °C.

Regarding `CCOC(=O)Cc1nc2cc(Cl)ccc2o1`, the melting point was 90 to 91 °C.

Turning to `NC(=O)NN=Cc1c(-c2ccccc2)nn2ccccc12`, the melting point lay in the range of 221 to 222 °C.

`Oc1c(Br)c(Br)c(F)c(Br)c1Br` displayed a melting point of 178 to 180 °C.

Consider `OCC=C[C@@H]1O[C@H]1C#CC#CC#Cc1ccccc1` (relative stereo), for which the melting point is 65 to 66 °C.

The molecule `COc1cc(C(F)(F)F)cc(OC)c1C(=O)CCl` displayed a melting point of 120 to 122 °C.

Take `CCC(c1cnc2c(C)c(NC(=O)c3ccc(-c4ccc(F)cc4)cc3)ccc2c1)N1CCCC1` (centres undefined): the melting point was 188 to 191 °C.

Turning to `COC(=O)c1c(C)nc(C)c(C(=O)OC)c1-c1ccccc1F`, the melting point was in the range of 94 to 96 °C.

`O=C1Nc2cccnc2N(C(=O)NCCN2CCC(CNCC3CCCCC3)C2)c2ccccc21` (centres undefined): the melting point fell in the range of 166 to 167 °C.

In turn, `c1cncc(-c2c[nH]cn2)c1` came in with a melting point of 117 to 118 °C.

In turn, `Cc1c(CON2C(=O)c3ccccc3C2=O)ncn1C(c1ccccc1)(c1ccccc1)c1ccccc1` yielded a melting point of 220 to 223 °C.

`CN(C(CCN1C(=O)c2ccccc2C1=O)C(=O)NO)S(=O)(=O)c1ccc(Oc2cccc(Cl)c2)cc1` (centres undefined) yielded a melting point of 81 to 84 °C.

The molecule `C#CCC(NC(=O)c1ccccc1)C(C)=O` (centres undefined) returned a melting point of 101 to 103 °C.

As for `Cc1cc([N+](=O)[O-])c(OCc2ccccc2)c(Cl)c1C`, the melting point fell in the range of 74 to 75 °C.

Take `COC(=O)C1=C(C)NC(=S)N(C(=O)OC(C)C)C1c1cccc([N+](=O)[O-])c1` (centres undefined): the melting point lay in the range of 157 to 158 °C.

Molecule `COc1cc(OC)cc(C(=O)NCCCSc2ccncc2)c1` came in with a melting point of 110 to 111 °C.

`CC(=O)OCCOc1ccc2oc3cc(-c4nnn[nH]4)ccc3c(=O)c2c1` registered a melting point of 216 to 218 °C.

In turn, `CSc1ccc(NC(C#N)c2ccc(OC(F)F)cc2)cc1` (centres undefined) registered a melting point of 98 to 99 °C.

Molecule `O=C(N[C@H](Cc1ccccc1)C(=O)O)C1CCCC1` registered a melting point of 102 to 104 °C.

`C=CC(NC(C)=O)C(=O)NCc1ccccc1` (centres undefined) registered a melting point of 136 to 138 °C.

Take `Cc1ccc(S(=O)(=O)N[C@@H](C)C(=O)Oc2csc(-c3ccccc3)n2)cc1`: the melting point lay in the range of 110 to 112 °C.

`Cc1c(-c2ccc(O)cc2O)c(=O)oc2cc(F)ccc12`: the melting point fell in the range of 266 to 268 °C.

`CC(=Cc1ccccc1)c1ncccc1C(N)=O` yielded a melting point of 150 to 155 °C.

In the case of `O=C1CN(c2cc(Oc3ccccc3)ccc2O)S(=O)(=O)N1`, the melting point lay in the range of 153 to 157 °C.

For the molecule `O=C1CCC(N2C(=O)c3cccc(NC(=O)CCCCCNC(=O)OCc4ccccc4)c3C2=O)C(=O)N1` (centres undefined), the melting point is 122 to 125 °C.

Regarding `Cn1ccc2c(NC(=O)c3ccccc3O)cccc21`, the melting point came out at 211 °C.

Regarding `Cn1nc(C(F)(F)F)c(C=O)c1O`, the melting point is 116 to 118 °C.

Regarding `COc1ccc(Cn2c(=O)c(C#N)c(Cl)c3cc(Cl)cnc32)cc1`, the melting point came to 208 °C.

In turn, `Cc1c(C)c2c3c(cc(C)c2[nH]c1=O)CC(CN=[N+]=[N-])O3` (centres undefined) had a melting point of 187 to 189 °C.

Molecule `COc1ccccc1N1CCN(CCCCc2ccc(C3CCC(=O)N3)cc2)CC1` (centres undefined) came in with a melting point of 130 to 131 °C.

Take `COc1cccc(N2CCCN(c3ccnc4sc(C(N)=O)c(N)c34)CC2)c1`: the melting point lay in the range of 193 to 195 °C.

Turning to `OCCCc1ccc(OCc2ccco2)cc1Oc1ncc(C(F)(F)F)cc1Cl`, the melting point is 68 to 68.6 °C.

`CC(C)(C)[Si](C)(C)OC(=O)O[Si](C)(C)C(C)(C)C` gave a melting point of 128 to 130 °C.

Consider `Cn1c(C(F)(F)F)cc(=O)n(-c2cc(C=O)c(Cl)cc2Cl)c1=O`, for which the melting point was 117 to 120 °C.

The molecule `COc1ccc(S(=O)(=O)N(Cc2cccnc2)c2c(C(=O)O)cnc3c2c(C)nn3-c2ccccc2)cc1` gave a melting point of 192 to 194 °C.

In the case of `CC1Cc2c(n(-c3ccccc3)c3ncccc3c2=O)O1` (centres undefined), the melting point lay within 207 to 209 °C.

As for `COC(=O)c1cc(-c2ccc(C)cc2)n(-c2ccc(S(N)(=O)=O)cc2)n1`, the melting point was in the range of 138 to 139 °C.

On to `Cc1cc(-n2nc(C(F)(F)F)cc2-c2ccc(-c3ccco3)cc2)ccc1S(C)(=O)=O`, for which the melting point was in the range of 135 to 139 °C.

`CC(C)c1ccc2oc(C=Cc3ccc(C#N)cc3)cc(=O)c2c1` yielded a melting point of 189 to 191 °C.

On to `Cc1ccc(S(=O)(=O)N2CCCC2c2ccccc2Cl)cc1` (racemic), for which the melting point was found to be 149 °C.

In the case of `CN1CCN(c2ccc(CCCC(=O)N3CCC(c4ccc(Cl)cc4)CC3)cc2)CC1`, the melting point lay in the range of 119 to 120 °C.

On to `FC(F)(F)c1ccc(C2CNCc3[nH]c4ccccc4c32)cc1` (centres undefined), for which the melting point was in the range of 172 to 174 °C.

The molecule `Cc1ccc2nc(C(O)[C@H](C)NC(=O)OCc3ccccc3)oc2c1` (some centres undefined) registered a melting point of 108 to 109 °C.

Turning to `NC(=O)NC(=O)c1ccccn1`, the melting point lay in the range of 183 to 185 °C.

Molecule `COc1cc(C(=O)CBr)cc([N+](=O)[O-])c1O` had a melting point of 147 to 149 °C.

Regarding `Cc1ccccc1CC(=NC#N)NC(NC(=O)Cc1ccc(F)c(F)c1)C(C)(C)C` (centres undefined), the melting point was in the range of 178 to 179 °C.

Turning to `CC(C)(C)OC(=O)NCCCCNC(=O)COc1cccc(C(F)(F)F)c1`, the melting point is 86 °C.

Take `CC(C)CC(=O)Nc1cccc(-c2ccnc3c(-c4cccc(N)c4)cnn23)c1`: the melting point fell in the range of 173 to 175 °C.

`CC(=NO)C1(c2ccc(Cl)c(Cl)c2)CCC1` registered a melting point of 120 to 121 °C.

Consider `COc1ccccc1-n1cnc2c(C(N)=O)nc(-c3cccc(O)c3)nc21`, for which the melting point lay within 230 to 231 °C.

As for `Cc1nc2cnccc2n1-c1ccc(CCO)cc1`, the melting point is 196 to 198 °C.

As for `SC1=NCCN1Cc1ccccc1`, the melting point was in the range of 177 to 182 °C.

In turn, `CCN1c2ncccc2C(=O)N(C)c2ccc(-c3cccn3C(C)=O)nc21` had a melting point of 106 to 108 °C.

The molecule `COc1ccnc(Nc2nc(-c3ccncc3)cs2)c1` came in with a melting point of 190 to 192 °C.

Take `CCN(CC)c1ccc(-n2cc(-c3ccc(C4=C(C#N)C(=C(C#N)C#N)OC4(C)C)cc3)nn2)cc1`: the melting point amounted to 265 °C.

For `CCCN(CC)c1cc(C)nc(Oc2c(C)cc(Cl)cc2C)c1C`, the melting point lay within 74 to 76 °C.

As for `CC(C)(C)OC(=O)[C@@H]1CCCN1C(=O)Cl`, the melting point lay in the range of 89 to 92 °C.

In the case of `CC1CCN(c2ccc([N+](=O)[O-])cc2C(=O)c2ccccc2)CC1`, the melting point turned out to be 81 °C.

In the case of `Clc1ccc2nc(-c3ccco3)c(I)n2n1`, the melting point is 260 to 263 °C.

`O=C(O)c1cccc2c1CCc1ccsc1-2`: the melting point lay within 182 to 184 °C.

With `COC(=O)[C@@H]1CSSCC(C)(C)C(=O)N1`, the melting point is 87 to 89 °C.

Consider `COc1cccc(Nc2ccnc(Nc3cc(OC)c(OC)c(OC)c3)n2)c1`, for which the melting point was found to be 78 °C.

The molecule `Cn1nc(C(F)(F)F)n(-c2ccc(I)cc2Cl)c1=S` came in with a melting point of 117 to 119 °C.

As for `Cc1cnnc2ccccc12`, the melting point lay in the range of 70 to 72 °C.

Molecule `N#Cc1cc2sccc2nc1I` registered a melting point of 190 to 191 °C.

Molecule `COC(=O)C(=O)c1ccc(OC/C=C/c2c(C(C)C)nc3ccccc3c2-c2ccc(F)cc2)cc1` registered a melting point of 109 to 111 °C.

For the molecule `O=C1NC(=O)c2c1c(-c1ccccc1Cl)cc1c2c(Cl)c(CO)n1CCCO`, the melting point fell in the range of 218 to 219 °C.

In turn, `CCN(C=CC(=O)c1cccnc1)CC` came in with a melting point of 193 to 195 °C.

`CCN1CCC(C(=O)NO)(S(=O)(=O)c2ccc(Oc3ccc(Cl)cc3)cc2)CC1` came in with a melting point of 158 °C.

In turn, `COC(=O)CC[C@H]1CC[C@@H](NC(=O)N(NC(C)=O)c2ccc(C#N)cc2)CC1` had a melting point of 132 to 134 °C.

`Cc1c(F)cc(C(C)(C)C)c(O)c1-c1nc2cc(S(=O)(=O)C(F)(F)F)ccc2[nH]1`: the melting point fell in the range of 245 to 247 °C.

Molecule `NC1CCc2ccccc2C1NC(=O)OCc1ccccc1` (centres undefined) had a melting point of 102 to 145 °C.

On to `Cc1nc2ccccc2c2c1OC(C)CN2` (centres undefined), for which the melting point fell in the range of 169 to 170 °C.

The molecule `O=C(N[C@H]1CC[C@H](CCN2CCN(c3nccc4c3CCO4)CC2)CC1)c1cnc(N2CCOCC2)cn1` returned a melting point of 192 °C.

In turn, `CC(=O)N1CCC(c2cc(F)c(C(=O)O)cc2F)CC1` showed a melting point of 206 to 207 °C.

Molecule `N#Cc1ccc(N2CCC(O)C2)c2ccccc12` (centres undefined) showed a melting point of 138 to 139 °C.

The molecule `COC(=O)c1cccc([N+](=O)[O-])c1C(=O)O` gave a melting point of 166 to 168 °C.

`Cn1nc(-n2ncc(C(N)=S)c2Br)c(Cl)c1OC(F)F` returned a melting point of 175 °C.

The molecule `CC(CSC(=O)c1ccccc1)C(=O)N1Cc2ccccc2CC1C(=O)O` (centres undefined) showed a melting point of 154 to 155 °C.

For `CN(C(=O)c1ccc2nonc2c1)C1CCCC1`, the melting point lay in the range of 110 to 111 °C.

`COCOc1cc(OC)cc(C)c1C(=O)O` yielded a melting point of 111 to 112 °C.

`CCOC(=O)c1nc2cc(N)ccn2n1`: the melting point was 150 to 171 °C.

For the molecule `O=C1C2CSCC1CN(Cc1ccccc1)C2`, the melting point fell in the range of 91 to 92 °C.

Turning to `CC(=O)c1cc(C(C)=O)c(O)cc1N`, the melting point was in the range of 227 to 230 °C.

By melting point is commonly meant the temperature of the solid-liquid transition.

For the origin of these results see a melting point compilation (Tetko et al.; mined from patent text by program, amines drawn as free bases though some values may be those of a salt).
